Test results as given in patent US20190265231A1, “GPCR (GPR113) INVOLVED IN FAT, FATTY ACID AND/OR LIPID-ASSOCIATED TASTE AND USE IN ASSAYS FOR IDENTIFYING TASTE MODULATORY” (SENOMYX, INC., priority 2015, published 2019).

What was measured:
GPR113 KO mice = experiment: brief-access licking paradigms in WT and GPR113 KO mice; type: in vivo; conditions: for licking response of GPR113 KO mice compared with WT: GPR113 KO versus WT; for licking in response to increasing concentrations: WT mice
Procedure: FIG. 10 contains mean (±SE) number of licks taken to a range of soybean oil concentrations and the vehicle emplex measured during 5-second trials in wild-type (WT; closed circles) and GPR113 knockout (KO; open circles) mice.
Several groups of mice underwent behavioral testing. […] We also tested groups of mice in brief-access licking paradigms. […] Mineral oil was tested as a control for viscosity.

GLX mice = experiment: brief access licking after glossopharyngeal nerve transection (GLX); type: in vivo; conditions: C57Bl/6 mice, GLX versus SHAM
Procedure: C57Bl/6 mice (Harlan) were trained to lick in the brief access licking. Following training mice were balanced for body weight and average number of licks per trial to water during training and assigned to a surgery group. Mice were allowed to recover for at least two weeks following surgery. They were given two days of licking to water (shutter training), food was taken away overnight and they were tested for their licking responses to soybean oil in […] over 2 days of testing. The next week they were tested in the same manner to sucrose. Following the last day of testing, mice were euthanized and their tongues were taken for histological analysis. CV papilla were cross sectioned and stained with hematoxylin/eosin. An observer blind to the surgical condition counted taste buds.

SMILES | licking response of GPR113 KO mice compared with WT (GPR113 KO mice) | licking in response to increasing concentrations (GPR113 KO mice) | concentration-dependent licking in GLX mice relative to SHAM operated controls (GLX mice)
[Cl-].[K+] [KCl] | responded similarly | – | –
[Cl-].[Na+] [NaCl] | responded similarly | – | –
O=C(O)CC(O)(CC(=O)O)C(=O)O [citric acid] | responded similarly | – | –
CCCCC/C=C\C/C=C\CCCCCCCC(=O)O [linoleic acid] | absent or significantly diminished | increased licking | –
CCCCCCCC/C=C\CCCCCCCC(=O)O [oleic acid] | absent or significantly diminished | increased licking | –
C=C[C@H]1C[N@@]2CC[C@H]1C[C@H]2[C@H](O)c1ccnc2ccc(OC)cc12 [quinine] | responded similarly | – | –
OC[C@H]1O[C@@](CO)(O[C@H]2O[C@H](CO)[C@@H](O)[C@H](O)[C@H]2O)[C@@H](O)[C@@H]1O [sucrose] | responded similarly | – | identical increases in licking
